{"source": "paper PMC5963010", "about": "“Characterization of a novel thermostable and xylose-tolerant GH 39 β-xylosidase from Dictyoglomus thermophilum” (BMC Biotechnology, 2018)", "biological_target": "T1, Xln-DT (Dictyoglomus thermophilum, UniProt B5YB78)", "T1 construct": "gene DICTH_1792; full-length ORF, 502 aa (1509 bp), in pET-20b (BamHI/XhoI), E. coli BL21(DE3); tag not described", "T1 sequence (B5YB78 1-502)": "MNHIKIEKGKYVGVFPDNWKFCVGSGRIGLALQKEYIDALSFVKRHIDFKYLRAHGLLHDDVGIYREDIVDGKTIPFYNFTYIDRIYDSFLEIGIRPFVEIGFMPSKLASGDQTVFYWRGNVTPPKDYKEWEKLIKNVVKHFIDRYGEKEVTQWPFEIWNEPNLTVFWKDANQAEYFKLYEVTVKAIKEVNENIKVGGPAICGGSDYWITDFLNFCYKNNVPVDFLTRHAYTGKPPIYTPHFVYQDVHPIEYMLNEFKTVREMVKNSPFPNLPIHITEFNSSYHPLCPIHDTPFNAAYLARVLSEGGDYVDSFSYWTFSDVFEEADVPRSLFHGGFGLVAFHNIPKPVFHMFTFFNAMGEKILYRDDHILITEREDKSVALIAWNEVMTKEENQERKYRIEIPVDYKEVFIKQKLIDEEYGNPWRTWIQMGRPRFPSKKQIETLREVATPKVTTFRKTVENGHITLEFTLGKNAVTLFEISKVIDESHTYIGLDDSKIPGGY", "assay": "pNPX hydrolysis assay with added xylose", "type": "biochemical", "data": [{"smiles": "OC1OC[C@@H](O)[C@H](O)[C@H]1O", "note": "(stereo partly shown) [xylose]", "values": [{"measurement": "inhibition at 3 M", "value": 40, "unit": "%"}]}]}
